Assay results published in the Bradley open melting point set (2014).
Several values for one entry are separate records, joined by “and”; a condition that tells them apart may be missing. Identical values can stand only once.

| SMILES | melting point |
| --- | --- |
| C=CC=O [Acrylaldehyde] | -87 °C |
| OB(O)c1cnc(OCc2ccccc2)nc1OCc1ccccc1 [2,4-dibenzyloxypyrimidine-5-boronic acid] | 90 °C |
| CC12CCC(=O)CC1CCC1C2CCC2(C)C1CCC21OCCO1 (centres undefined) | 188 °C |
| CCc1ccccc1CC [1,2-diethylbenzene] | -31 °C |
| c1c[nH]nn1 [1h-1,2,3-triazole] | 24 °C |
| CC1(O)CCCC1 [1-methylcyclopentanol] | 37 °C |
| NS(=O)(=O)c1cc2c(cc1Cl)NCNS2(=O)=O | 274 °C |
| O=[N+]([O-])c1ccccc1CCl [2-nitrobenzyl chloride] | 49 °C |
| CC(=O)OC1=CC(c2ccccc2)c2ccccc21 (centres undefined) [1-phenyl-1H-inden-3-yl acetate] | 56 °C |
| c1ccc2cc3cc4ccccc4cc3cc2c1 [Tetracene] | 350 °C |
| CC1CCC(C(C)C)C(OC(=O)C2(C)CCC(C)C2(C)C)C1 (centres undefined) | 50 °C |
| ClC1=C(Cl)[C@]2(Cl)[C@@H]3[C@@H]4C[C@@H]([C@H]5O[C@@H]45)[C@@H]3[C@@]1(Cl)C2(Cl)Cl | 176 °C |
| C1=CC=C/C=CC=C1 [1,3,5,7-cyclooctatetraene] | -5 °C |
| OB(O)c1ccccc1C(F)(F)F [2-(trifluoromethyl)benzeneboronic acid] | 109 °C |
| CC1CCC(C(C)C)C(OC(=O)C(=O)/C=C/c2ccccc2)C1 (centres undefined) | 46 °C |
| c1ccc2c(c1)cc1ccc3cccc4ccc2c1c34 [3,4-benzopyrene] | 179 °C |
| CC(Cl)CCl (centres undefined) [1,2-dichloropropane] | -100 °C |
| Cc1cccc(C)c1O [2,6-Dimethylphenol] | 49 °C |
| O=c1[nH]c2ccccc2o1 [2-benzoxazolinone] | 140 °C |
| C#CC1(O)CCC2C3CCC4C(C)(C)CCCC4(C)C3CCC21C (centres undefined) [4,4-dimethylpregn-20-yn-17-ol] | 157 °C |

Further lines, results first:

| melting point | SMILES |
| --- | --- |
| 102 °C | CCCc1ccc(C(=O)Oc2ccc(C#N)cc2)cc1 [4-cyanophenyl 4-n-propylbenzoate] |
| 149 °C | CC(C)CCC[C@@H](C)[C@H]1CC[C@H]2[C@@H]3CC=C4C[C@@H](O)CC[C@]4(C)[C@H]3CC[C@]12C [(3beta)-Cholest-5-en-3-ol] |
| -65 °C | CC(C)C=O [2-methylpropanal] |
| 112 °C | COC(=O)c1ccc(N)cc1 [methyl 4-aminobenzoate] |
| 62 °C | O=C(O)CSCc1ccccc1 [(benzylthio)acetic acid] |
| 322 °C | Nn1c(S)nnc1-c1ccc(Cl)cc1 [4H-1,2,4-triazole-3-thiol, 4-amino-5-(4-chlorophenyl)-] |
| 43 °C | c1ccc([SiH](c2ccccc2)c2ccccc2)cc1 [triphenylsilane] |
| -85 °C | NC1CCCC1 [cyclopentylamine] |
| 154 °C | Cc1ccn[nH]c1=O [4-Methylpyridazin-3(2H)-one] |
| 176 °C | CC1(c2ccccc2)OC(C(=O)O)=CC1=O (centres undefined) [acifran] |
| 135 °C | O=C(CO)[C@@H](O)[C@@H](O)[C@H](O)CO [D-tagatose] |
| 346 °C | O=C(O)c1ccnc(F)c1 [2-fluoropyridine-4-carboxylic acid] |
| 129 °C | CC1=CC(c2c(C)cc(C)cc2C)N=N1 (centres undefined) [5-methyl-3-(2,4,6-trimethylphenyl)-1H-pyrazole] |
| -17.5 °C and -16.2 °C | OC1CCCC1 [cyclopentanol] |
| 162 °C | CCOC(=O)/C(C#N)=N\Nc1ccc(Cl)cc1 [Ethyl (2Z)-[(4-chlorophenyl)hydrazono](cyano)acetate] |
| 145 °C | CN(C)c1ccc(C(=O)Cl)cc1 [4-dimethylaminobenzoyl chloride] |
| 115 °C | NC(=O)c1cccc(N)c1 [m-aminobenzamide] |
| 116 °C | c1cc2c3c(c1)ccc1cccc(c13)C2 [4H-Cyclopenta[def]phenanthrene] |
| 79 °C | CCCCCCCC/C=C\CCCCCCCCCCCC(N)=O [(13Z)-Docos-13-enamide] |
